Structures are written as SMILES. pEC50, pKd: −log10 of the molar value. Calls of active or inactive are those of the source. No cut-off for these calls is given here. A value given as a limit tells only on which side of the number the result lay.

The text below walks through data of ChEMBL document CHEMBL3808302, “Novel Inhibitors of Toxin HipA Reduce Multidrug Tolerant Persisters” (ACS Med Chem Lett, 2016).

Series [1] deals with T1, Serine/threonine-protein kinase toxin HipA (Escherichia coli (strain K12)), P23874 [D309Q].
T1 sequence (whole entry): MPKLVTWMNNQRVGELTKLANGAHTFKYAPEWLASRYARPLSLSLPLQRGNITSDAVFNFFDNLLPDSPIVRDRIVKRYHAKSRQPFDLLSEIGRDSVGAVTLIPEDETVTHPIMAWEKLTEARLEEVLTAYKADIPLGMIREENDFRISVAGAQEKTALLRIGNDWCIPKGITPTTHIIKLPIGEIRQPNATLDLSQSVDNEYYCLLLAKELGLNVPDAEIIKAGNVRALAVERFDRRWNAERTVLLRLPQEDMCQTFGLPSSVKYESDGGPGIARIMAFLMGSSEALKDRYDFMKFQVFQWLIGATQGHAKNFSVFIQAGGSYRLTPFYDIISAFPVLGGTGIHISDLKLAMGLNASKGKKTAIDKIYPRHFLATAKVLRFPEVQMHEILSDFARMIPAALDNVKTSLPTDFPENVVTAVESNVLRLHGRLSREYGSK
As to the kind of experiment: (§1) Binding affinity to Escherichia coli HipA D309Q mutant expressed in Escherichia coli BL21 (DE3) by surface plasmon resonance assay.

Series [2] deals with Serine/threonine-protein kinase toxin HipA (Escherichia coli (strain K12), UniProt P23874, D309Q). The description is as §1.
In series [3] the test system is T1, Serine/threonine-protein kinase toxin HipA (Escherichia coli (strain K12)), P23874 [D309Q]. The series can be described thus: Binding affinity to Escherichia coli HipA D309Q mutant expressed in Escherichia coli BL21 (DE3) assessed as slow-on/fast-off type binding at 0.00015 to 8.75 uM by surface plasmon resonance assay. For orientation: In SPR one partner is held on a chip, and binding of the other changes the refractive index at the surface.

The test system is the same in series [4]. The series can be described thus: Binding affinity to Escherichia coli HipA D309Q mutant expressed in Escherichia coli BL21 (DE3) assessed as slow-on/fast-off type binding at 3.125 to 87.5 uM by surface plasmon resonance assay.
In series [5] the test system is Escherichia coli. The series can be described thus: Cytotoxicity against Escherichia coli K-12 MG1655 cells at 250 uM. It counts as organism-based.
A short description of series [6]: (§2) Inhibition of HipA in Escherichia coli K-12 MG1655 assessed as reduction of persister fraction incubated for 8 hrs in presence of ampicillin.
Series [7] deals with Escherichia coli K-12. Described as §2.
The subject of series [8] is Escherichia coli K-12. As to the kind of experiment: Inhibition of HipA in Escherichia coli K-12 MG1655 assessed as reduction of persister fraction at 250 uM incubated for 8 hrs in presence of ampicillin relative to control.
Series [9] in a line: (§3) Inhibition of HipA in Escherichia coli K-12 MG1655 assessed as reduction of persister fraction incubated for 8 hrs in presence of kanamycin.
Series [10] deals with Escherichia coli K-12. Described as §3.
Series [11] relates to Escherichia coli. As to the kind of experiment: Antipersistence effect in hipA knockout Escherichia coli assessed as reduction of persister fraction at 200 uM in presence of ampicillin. It is filed as functional, organism-based.
For series [12], the system named is Escherichia coli K-12. The series can be described thus: Inhibition of HipA in Escherichia coli K-12 MG1655 assessed as reduction of persister fraction incubated for 8 hrs in presence of kanamycin relative to control.
The subject of series [13] is T1, Serine/threonine-protein kinase toxin HipA (Escherichia coli (strain K12)), P23874 [D309Q]. As to the kind of experiment: Binding affinity to Escherichia coli HipA D309Q mutant expressed in Escherichia coli BL21 (DE3) assessed as fast-on/fast-off type binding at 6.25 to 100 uM by surface plasmon resonance assay.
For series [14] the test system is unchanged. The series can be described thus: Binding affinity to Escherichia coli HipA D309Q mutant expressed in Escherichia coli BL21 (DE3) assessed as slow-on/slow-off type binding at 3.125 to 100 uM by surface plasmon resonance assay.

Take `CCc1ccc(C2C(C(=O)c3ccc(OC)cc3)=C(O)C(=O)N2CCc2c[nH]c3ccccc23)cc1` (stereo not drawn): the Activity entry in series [1] was “Dose-dependent effect”; in series [5], “Non-toxic”. Moreover, in [2], the pKd – broadly, the negative decadic logarithm of the Kd, by convention in mol/L – is 6.57. For the same compound, the result in [3] and in [4] was Active. Moreover, the results for the pEC50 in [6] and in series [9] were 4.34 and 4.55, respectively. For the same compound, the inhibition entry in series [7] and in series [10] was “Dose-dependent effect” each time. Moreover, the fold change (FC) in [8] was 5; in series [12], above 1. In [11], the result was inactive.

For the compound `CCN1CCN(CCNC(=O)c2cccc(Nc3cc(-c4ccccc4)ncn3)c2)CC1`, the Activity result is “Dose-dependent effect” in series [1] and “Non-toxic” in [5]. Also, in series [2], the negative-log Kd (pKd) is 4.27. Besides, the result in [13] was Active. In addition, the negative logarithm of the EC50 (pEC50) (in general, the negative decadic logarithm of the EC50, by convention in mol/L) in series [6] was 3.90; in [9], 3.95. The inhibition entry in [7] and in series [10] was “Dose-dependent effect” throughout. For the same compound, the fold change (FC) in series [8] and in series [12] was 5 in each case.

For the compound `CCOC(=O)c1ccc(NC(=O)CSc2nnc(CSc3nc(C)cc(C)n3)o2)cc1`, the results for the Activity result in [1] and in series [5] were “Dose-dependent effect” and “Non-toxic”, respectively. The compound further had a pKd in series [2] of 4.46. Also, the result in series [3] and in [4] was Active. Further, the figures for the pEC50 in series [6] and in series [9] were 3.94 and 4.37, respectively. In addition, the inhibition entry in series [7] and in [10] was “Dose-dependent effect” in each case. Also, the figures for the fold change (FC) in series [8] and in [12] were 2 and 3, respectively.

Turning to `COc1cc(NC(=O)c2cc3nc(-c4ccc(F)cc4)cc(C)n3n2)cc([N+](=O)[O-])c1`, the Activity result in series [1] is “Dose-dependent effect”; in series [5], “Non-toxic”. This compound also had a pKd in series [2] of 4.37. Besides, in [14], the outcome was Active. Moreover, the pEC50 in [6] is 4.08; in [9], 4.00. Also, the inhibition result in series [7] and in series [10] was “Dose-dependent effect” throughout. Besides, the fold change (FC) in series [8] and in series [12] was 5 each time.
